Source: PubChem BioAssay AID306 (DTP/NCI, 2004)
“And” between values parts separate entries of the source, which are not always exact repeats. Equal entries are not always repeated. Inconclusive results and toxic doses are left out. How the source made its calls: active means survival T/C of 150% or more; inactive means T/C below 125% in these data.

System: BDF1 mice, L1210 Methyl-GAG-resistant leukemia, survival T/C
Assay: NCI In Vivo Anticancer Drug Screen. Data for tumor model L1210 Leukemia resistant to Methyl-GAG; NSC 32946 (subcutaneous) in B6D2F1 (BDF1) mice
Conditions: endpoint: mean survival time, higher = longer survival
Procedure: The antitumor activity of compounds was measured in mice bearing transplantable tumors. Survival or tumor size were measured and the results are expressed as the measurement made in the treated group (T) divided by the measurement made in the vehicle treated control group (C). The tumor model used in this assay is L1210 Leukemia resistant to Methyl-GAG; NSC 32946 (subcutaneous) in B6D2F1 (BDF1) mice

[1] = dose: 25.0 mg/kg/injection, schedule: Q01DX Z (ip), vehicle: carboxymethylcellulose (CMC)
[2] = dose: 100.0 mg/kg/injection, schedule: Q01DX Z (ip), vehicle: carboxymethylcellulose (CMC)
[3] = dose: 200.0 mg/kg/injection, schedule: Q01DX Z (ip), vehicle: carboxymethylcellulose (CMC)
[4] = dose: 12.5 mg/kg/injection, schedule: Q01DX Z (ip), vehicle: carboxymethylcellulose (CMC)
[5] = dose: 50.0 mg/kg/injection, schedule: Q01DX Z (ip), vehicle: carboxymethylcellulose (CMC)

Measured: T/C

CN(C)c1ccc(/C=C\c2ccnc3ccccc23)cc1
inactive: dose: 0.4 mg/kg/injection, schedule: Q01DX Z (ip), vehicle: water 97 % of control and 107 % of control | dose: 0.8 mg/kg/injection, schedule: Q01DX Z (ip), vehicle: water 89 % of control and 105 % of control | dose: 1.6 mg/kg/injection, schedule: Q01DX Z (ip), vehicle: water 104 % of control | dose: 3.1 mg/kg/injection, schedule: Q01DX Z (ip), vehicle: water 101 % of control | dose: 6.25 mg/kg/injection, schedule: Q01DX Z (ip), vehicle: water 90 % of control | dose: 12.5 mg/kg/injection, schedule: Q01DX Z (ip), vehicle: water 95 % of control | dose: 25.0 mg/kg/injection, schedule: Q01DX Z (ip), vehicle: water 104 % of control | dose: 50.0 mg/kg/injection, schedule: Q01DX Z (ip), vehicle: water 97 % of control and 107 % of control

O=c1[nH]c(=O)n(C2CC(O)C(CO)O2)cc1F (stereo unspecified)
inactive: [1] 112 % of control | [2] 121 % of control | [3] 87 % of control and 103 % of control

CN(C)c1ccc(Nc2c3ccccc3nc3ccccc23)cc1
inactive: dose: 1.6 mg/kg/injection, schedule: Q01DX Z (ip), vehicle: carboxymethylcellulose (CMC) 105 % of control | dose: 3.1 mg/kg/injection, schedule: Q01DX Z (ip), vehicle: carboxymethylcellulose (CMC) 99 % of control | dose: 6.25 mg/kg/injection, schedule: Q01DX Z (ip), vehicle: carboxymethylcellulose (CMC) 100 % of control | [4] 103 % of control | [1] 115 % of control | [3] 91 % of control

CN(C)c1nc(N(C)C)nc(N(C)C)n1
inactive: dose: 62.5 mg/kg/injection, schedule: Q01DX Z (ip), vehicle: carboxymethylcellulose (CMC) 100 % of control | dose: 125.0 mg/kg/injection, schedule: Q01DX Z (ip), vehicle: carboxymethylcellulose (CMC) 95 % of control | dose: 250.0 mg/kg/injection, schedule: Q01DX Z (ip), vehicle: carboxymethylcellulose (CMC) 100 % of control | dose: 500.0 mg/kg/injection, schedule: Q01DX Z (ip), vehicle: carboxymethylcellulose (CMC) 100 % of control | dose: 1000.0 mg/kg/injection, schedule: Q01DX Z (ip), vehicle: methylcellulose (MC) 98 % of control

C[C@]12CCC(=O)C=C1CC[C@@H]1[C@@H]2CC[C@@]2(C)[C@H]1CC[C@]2(C)O
inactive: dose: 16.0 mg/kg/injection, schedule: Q01DX Z (sc), vehicle: steriod suspending solution 97 % of control | dose: 32.0 mg/kg/injection, schedule: Q01DX Z (sc), vehicle: steriod suspending solution 105 % of control | dose: 62.5 mg/kg/injection, schedule: Q01DX Z (sc), vehicle: steriod suspending solution 89 % of control | dose: 63.0 mg/kg/injection, schedule: Q01DX Z (sc), vehicle: steriod suspending solution 97 % of control | dose: 125.0 mg/kg/injection, schedule: Q01DX Z (sc), vehicle: steriod suspending solution 95 % of control and 101 % of control

CS(=O)(=O)OCCCl
inactive: [4] 89 % of control | [1] 96 % of control | [5] 92 % of control | [2] 113 % of control

CC(=O)O[C@]1(C(C)=O)CC[C@H]2[C@@H]3C[C@H](C)C4=CC(=O)C=C[C@]4(C)[C@@]3(F)[C@@H](O)C[C@@]21C
inactive: dose: 10.0 mg/kg/injection, schedule: Q01DX Z (sc), vehicle: steriod suspending solution 102 % of control | dose: 20.0 mg/kg/injection, schedule: Q01DX Z (sc), vehicle: steriod suspending solution 105 % of control | dose: 40.0 mg/kg/injection, schedule: Q01DX Z (sc), vehicle: steriod suspending solution 121 % of control | dose: 80.0 mg/kg/injection, schedule: Q01DX Z (sc), vehicle: steriod suspending solution 114 % of control | dose: 160.0 mg/kg/injection, schedule: Q01DX Z (sc), vehicle: steriod suspending solution 121 % of control | dose: 320.0 mg/kg/injection, schedule: Q01DX Z (sc), vehicle: steriod suspending solution 115 % of control

Oc1cc(CN(CCCl)CCCl)c(O)cc1CN(CCCl)CCCl
inactive: dose: 1.88 mg/kg/injection, schedule: Q01DX Z (sc), vehicle: steriod suspending solution 103 % of control | dose: 3.75 mg/kg/injection, schedule: Q01DX Z (sc), vehicle: steriod suspending solution 111 % of control | dose: 7.5 mg/kg/injection, schedule: Q01DX Z (sc), vehicle: steriod suspending solution 115 % of control

CC(=O)Nc1ccc2nc3ccc(NC(C)=O)cc3[n+](-c3ccccc3)c2c1
inactive: [4] 97 % of control | [1] 97 % of control | [5] 113 % of control | [2] 98 % of control | [3] 88 % of control | dose: 400.0 mg/kg/injection, schedule: Q01DX Z (ip), vehicle: carboxymethylcellulose (CMC) 93 % of control
